Measured values: article PMC11590026, “Synthesis, enzyme inhibition, and docking studies of new schiff bases of disalicylic acid methylene-based derivatives as dual-target antibacterial agents” (Frontiers in Chemistry, 2024)
≈ marks a conversion by molar mass, not a printed value. Like-named read-outs stand apart in the source and are kept apart here.

Experiments:
E. coli (ATCC BAA-196) = assay: Antibacterial assay against multi-drug resistant strains (MIC/MBC); type: cell-based, Escherichia coli; settings: for MBC: ATCCBAA196
E. coli DNA gyrase = E. coli DNA gyrase (Escherichia coli, UniProt P0AES6); assay: E. coli DNA gyrase supercoiling inhibitory assay; type: biochemical
Method: The fluorescence was measured with a microplate reader (BioTek Synergy H4,
NaCl and 50 mM MgCl2) was added to terminate the enzymatic reaction. After
Initial screening was done at 100 or 10 μM concentration

B. subtilis = assay: MIC/MBC assay, twofold serial dilution; type: cell-based, Bacillus subtilis
Method: (§1) The results of this in vitro assay test are consistent with the findings of the antimicrobial sensitivity test. […] It has lower antimicrobial activity than ciprofloxacin against all pathogens tested.
(§2) The MBC differs from the MIC. […]
(§3) 4.2.2. Minimum inhibitory concentration assay
(§4) In 96-well microtiter plates and […] of fresh bacterial culture of a single McFarland unit overnight, a double serial dilution of each compound […] in sterile standard saline were prepared to every single source well. Ciprofloxacin antibiotic (5 mg / mL - 1) and normal saline were included as standard reference in each assay. The plates were incubated at 37 0C overnight. As an indicator of bacterial growth, […] of p-iodonitrotetrazolium violet (INT) was added to each well and incubated at 37 0C for 30 […]
(§5) min. MIC values are recorded as the lowest concentration of the extract that completely inhibited bacterial growth that is clear well. The colorless tetrazolidium salt acts as an electron accepter and is reduced to a red colored formazan product by biological activity organisms. Where bacterial growth was inhibited, the solution in the well remained clear after incubation with INT. […]

S. aureus = assay: MIC/MBC assay, twofold serial dilution; type: cell-based, Staphylococcus aureus
Method: as §1, §2, §3, §4, §5

[1] = Cell viability assay (MTT); type: cell-based; settings: human, MCF-10A cells (normal mammary gland epithelial cell line), 4-day incubation
Method: The vitality of the investigated compounds was assessed using the MCF-10A cell line, which is a normal human mammary gland epithelial cell line. Following a 4-day incubation period on MCF-10A cells with a concentration of 50 µM for each compound being studied, the viability of the cells was assessed using the MTT test ([Hisham et al., 2022]; [Mahmoud et al., 2022]).
4.2.3. Cell Viability assay
MTT assay was carried out to study the effect of compounds on mammary epithelial cells (MCF-10A). The medium in which cells were propagated contained Dulbecco's modified Eagle's medium (DMEM)/ Ham's F-12 medium (1:1) supplemented with epidermal growth factor (20 ng/mL), hydrocortisone (500 ng/mL), insulin (10 μg/mL), 2 mM glutamine and 10% fetal calf serum. After every 2-3 days, the cells were passaged using trypsin ethylenediamine tetra acetic acid (EDTA). The cells were seeded at a density of 10^4 cells mL-1 in flat-bottomed culture plates containing 96 wells each. After 24 h, medium was removed from the plates and the compounds in (in 0.1% DMSO) were added (in 200 μL medium to yield a final concentration of 0.1% v/v) to the wells of plates. A single compound was designated with four wells followed by incubation of plates for 96h at 37°C. After incubation, medium was removed completely from the plates followed by addition of MTT (0.4 mg/mL in medium) to each well and subsequent incubation of plates for 3h. MTT (along with the medium) was removed and DMSO (150μL) was added to each well of the culture plates, followed by vortexing and subsequent measurement of absorbance (at 540 nm) using microplate reader. The data are shown as percentage inhibition of proliferation in comparison with controls

C. albicans = assay: Antifungal assay (MIC/MFC), twofold serial dilution
[2] = test system: S. aureus (ATCC 43300) (MRSA); assay: Antibacterial assay against multi-drug resistant strains (MIC/MBC); type: cell-based, Staphylococcus aureus; settings: for MBC / MIC: S. aureus ATCC 43300 (MRSA)
[3] = test system: P. aeruginosa (ATCC BAA-2111); assay: as above; type: cell-based, Pseudomonas aeruginosa; settings: for MBC: ATCCBAA2111
Gram-positive bacteria = assay: MBC assay, Gram-positive bacteria together; type: cell-based; settings: Gram-positive bacteria (B. subtilis, S. aureus)
Excerpt: The MBC differs from the MIC.

DHFR E. Coli = DHFR E. Coli (Escherichia coli, UniProt P0ABQ4); assay: DHFR inhibitory assay; type: biochemical; settings: read-out: IC50 DHFR E. Coli
E. coli = assay: MIC/MBC assay, twofold serial dilution; type: cell-based, Escherichia coli; settings: for MBC: read-out: MBC
Method: as §1, §2, §3, §4, §5

A. flavus = assay: Antifungal assay (MIC/MFC), twofold serial dilution; settings: for MIC: A. flavus
S. aureus biofilm = assay: Antibiofilm assay, microtiter plate biofilm quantification
Method: Microtiter plate assay for biofilm quantification
The effect of sample on biofilm formation was evaluated in 96-well polystyrene
flatbottom plates. Briefly, 300 𝜇L of inoculated fresh trypticase soy yeast broth (TSY)
Wells containing medium and those without
extracts and only with methanol were used as controls. Plates were incubated at 37∘C
for 48h. After incubation, supernatant was removed and each well was washed
thoroughly with sterile distilled water to remove free-floating cells; thereafter plates
were air-dried for 30min, and the biofilm formed was stained during 15 min at room
temperature with 0.1% aqueous solution of crystal violet. Following incubation, the
excess of stain was removed by washing the plate three times with sterile distilled water.
each well and after 15min of incubation, absorbance was measured using microplate
reader at a wavelength of 570 nm.
Biofilm inhibition ability of sample=(1- (absorb. sample - absorb. Blank))/
(absorb. control - absorb. Blank))*100

P. aeruginosa = assay: MIC/MBC assay, twofold serial dilution; type: cell-based, Pseudomonas aeruginosa
Method: as §1, §2, §3, §4, §5

[4] = Escherichia coli, ATCCBAA196, read-out: MIC
[5] = Bacillus subtilis, read-out: MBC
[6] = Bacillus subtilis, read-out: MIC
[7] = Staphylococcus aureus, read-out: MBC
[8] = Staphylococcus aureus, read-out: MIC
[9] = Pseudomonas aeruginosa, ATCCBAA2111, read-out: MIC
[10] = Escherichia coli, read-out: MIC
[11] = Pseudomonas aeruginosa, read-out: MBC
[12] = Pseudomonas aeruginosa, read-out: MIC

DHFR E. Coli, sequence (P0ABQ4 whole entry): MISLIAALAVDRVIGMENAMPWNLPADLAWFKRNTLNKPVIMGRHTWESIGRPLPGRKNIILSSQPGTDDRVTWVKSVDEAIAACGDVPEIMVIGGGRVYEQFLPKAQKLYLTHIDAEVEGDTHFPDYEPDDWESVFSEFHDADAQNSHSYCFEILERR

## O=C1Nc2ccc(Cl)cc2/C1=N/NC(=O)c1cc(Cc2ccc(O)c(C(=O)N/N=C3\C(=O)Nc4ccc(Cl)cc43)c2)ccc1O [Compound 6h]
E. coli (ATCC BAA-196)
  MIC: 1.90 ± 0.10 µM (≈ 1.22 µg/mL)
E. coli (ATCC BAA-196); Escherichia coli
  MBC: 3.7 ± 0.2 µM (≈ 2.38 µg/mL)
E. coli (ATCC BAA-196); [4]
  MIC: 1.9 µM (≈ 1.22 µg/mL)
E. coli DNA gyrase
  Potency relative to novobiocin against DNA gyrase: twice as potent as novobiocin
E. coli DNA gyrase; read-out: IC50 E. Coli DNA gyrase
  IC50: 0.079 ± 0.005 µM
B. subtilis
  MBC: 0.038 ± 0.002 µM (≈ 0.0245 µg/mL)
  MIC: 0.024 ± 0.002 µM (≈ 0.0154 µg/mL)
  Times less effective than ciprofloxacin (MIC): 2.5 times
B. subtilis; [5]
  MBC: 0.038 µM (≈ 0.0245 µg/mL)
B. subtilis; [6]
  MIC: 0.024 µM (≈ 0.0154 µg/mL)
S. aureus
  MBC: 0.028 ± 0.001 µM (≈ 0.018 µg/mL)
  MIC: 0.019 ± 0.001 µM (≈ 0.0122 µg/mL)
  Times more effective than ciprofloxacin (MIC): 1.5 times
S. aureus; [7]
  MBC: 0.028 µM (≈ 0.018 µg/mL)
S. aureus; [8]
  MIC: 0.019 µM (≈ 0.0122 µg/mL)
[1]
  viability at 96 h, 50 µM: 93%
C. albicans; C. albicans
  MIC: 18.20 ± 1 µM (≈ 11.7 µg/mL)
C. albicans; Candida albicans
  MFC: 36.5 ± 2 µM (≈ 23.5 µg/mL)
  MIC: 18.2 µM (≈ 11.7 µg/mL)
[2]; MRSA strain S. aureus ATCC 43300
  Times more potent than norfloxacin (MBC): around 1.2 times
[2]
  MBC: 3.20 ± 0.15 µM (≈ 2.06 µg/mL)
  MIC: 1.70 ± 0.10 µM (≈ 1.09 µg/mL)
[2]; [7]
  MBC: 3.9 µM (≈ 2.51 µg/mL)
[2]; [8]
  MIC: 1.7 µM (≈ 1.09 µg/mL)
[3]
  MIC: 3.40 ± 0.20 µM (≈ 2.19 µg/mL)
[3]; Pseudomonas aeruginosa
  MBC: 5.8 ± 0.3 µM (≈ 3.73 µg/mL)
[3]; [9]
  MIC: 3.4 µM (≈ 2.19 µg/mL)
Gram-positive bacteria
  MBC: 0.028 to 0.058 µM (≈ 0.018 to 0.0373 µg/mL)
DHFR E. Coli
  IC50: 3.8 ± 0.1 µM
E. coli
  MIC: 0.054 ± 0.003 µM (≈ 0.0347 µg/mL)
E. coli; Escherichia coli
  MBC: 0.074 ± 0.006 µM (≈ 0.0476 µg/mL)
E. coli; [10]
  MIC: 0.054 µM (≈ 0.0347 µg/mL)
A. flavus
  MIC: 14.50 µM (≈ 9.33 µg/mL)
A. flavus; listed as 6 h
  MIC: 14.50 ± 1 µM (≈ 9.33 µg/mL)
A. flavus; Aspergillus flavus
  MFC: 28.5 ± 1 µM (≈ 18.3 µg/mL)
  MIC: 14.5 to 19.5 µM (≈ 9.33 to 12.5 µg/mL)
S. aureus biofilm; 1/2 MIC of 6h (S. aureus ATCC 43300)
  Biofilm inhibition %: 87.66%
S. aureus biofilm; 1/2 MIC of 6h (S. aureus ATCC 43300), listed as 6 h
  Biofilm inhibition %: 88%
S. aureus biofilm; 1/4 of MIC of 6h (S. aureus ATCC 43300)
  Biofilm inhibition %: 64.10%
S. aureus biofilm; 1/4 of MIC of 6h (S. aureus ATCC 43300), listed as 6 h
  Biofilm inhibition %: 64%
S. aureus biofilm; MIC of 6h (S. aureus ATCC 43300)
  Biofilm inhibition %: 96.95%
S. aureus biofilm; MIC of 6h (S. aureus ATCC 43300), listed as 6 h
  Biofilm inhibition %: 97%
P. aeruginosa
  MBC: 0.074 ± 0.005 µM (≈ 0.0476 µg/mL)
  MIC: 0.055 ± 0.004 µM (≈ 0.0354 µg/mL)
P. aeruginosa; [11]
  MBC: 0.074 µM (≈ 0.0476 µg/mL)
P. aeruginosa; [12]
  MIC: 0.055 µM (≈ 0.0354 µg/mL)

## Cc1ccc2c(c1)/C(=N/NC(=O)c1cc(Cc3ccc(O)c(C(=O)N/N=C4\C(=O)Nc5ccc(C)cc54)c3)ccc1O)C(=O)N2 [Compound 6j]
E. coli (ATCC BAA-196); Escherichia coli
  MBC: 6.1 ± 0.25 µM (≈ 3.68 µg/mL)
E. coli (ATCC BAA-196); [4]
  MIC: 3.9 ± 0.15 µM (≈ 2.35 µg/mL)
E. coli DNA gyrase
  IC50: 0.117 ± 0.008 µM
B. subtilis
  MBC: 0.047 ± 0.002 µM (≈ 0.0283 µg/mL)
B. subtilis; [5]
  MBC: 0.047 µM (≈ 0.0283 µg/mL)
B. subtilis; [6]
  MIC: 0.031 ± 0.002 µM (≈ 0.0187 µg/mL)
S. aureus
  MBC: 0.04 ± 0.002 µM (≈ 0.0241 µg/mL)
  MIC: 0.025 ± 0.002 µM (≈ 0.0151 µg/mL)
S. aureus; [7]
  MBC: 0.04 µM (≈ 0.0241 µg/mL)
S. aureus; [8]
  MIC: 0.025 µM (≈ 0.0151 µg/mL)
[1]
  viability at 96 h, 50 µM: 92%
C. albicans; Candida albicans
  MFC: 41.5 ± 3 µM (≈ 25 µg/mL)
  MIC: 20.7 ± 1 µM (≈ 12.5 µg/mL)
[2]; [7]
  MBC: 5.9 ± 0.25 µM (≈ 3.56 µg/mL)
[2]; [8]
  MIC: 3.2 ± 0.15 µM (≈ 1.93 µg/mL)
[3]; Pseudomonas aeruginosa
  MBC: 7.8 ± 0.3 µM (≈ 4.7 µg/mL)
[3]; [9]
  MIC: 5.6 ± 0.25 µM (≈ 3.37 µg/mL)
Gram-positive bacteria
  MBC: 0.028 to 0.058 µM (≈ 0.0169 to 0.035 µg/mL)
DHFR E. Coli
  IC50: 5.1 ± 0.2 µM
E. coli; Escherichia coli
  MBC: 0.081 ± 0.006 µM (≈ 0.0488 µg/mL)
E. coli; [10]
  MIC: 0.062 ± 0.004 µM (≈ 0.0374 µg/mL)
A. flavus
  MIC: 16.90 ± 1 µM (≈ 10.2 µg/mL)
A. flavus; Aspergillus flavus
  MFC: 33.9 ± 2 µM (≈ 20.4 µg/mL)
  MIC: 14.5 to 19.5 µM (≈ 8.74 to 11.8 µg/mL)
P. aeruginosa
  MBC: 0.08 ± 0.006 µM (≈ 0.0482 µg/mL)
P. aeruginosa; [11]
  MBC: 0.08 µM (≈ 0.0482 µg/mL)
P. aeruginosa; [12]
  MIC: 0.061 ± 0.005 µM (≈ 0.0368 µg/mL)
